Assay: xn = mol fraction of the nth substance listed

CCCN + COCCOCCOCCOC
298.15 K, 101 kPa
Conditions | viscosity [mPa·s]
x2 = 0.0076 | 0.366
x2 = 0.0166 | 0.375
x2 = 0.0296 | 0.393
x2 = 0.0659 | 0.44
x2 = 0.0954 | 0.48
x2 = 0.1298 | 0.526
x2 = 0.1596 | 0.567
x2 = 0.1909 | 0.611
x2 = 0.2265 | 0.659
x2 = 0.2351 | 0.673
x2 = 0.2622 | 0.711
x2 = 0.2681 | 0.721
x2 = 0.3073 | 0.782
x2 = 0.3623 | 0.864
x2 = 0.4044 | 0.935
x2 = 0.4583 | 1.022
x2 = 0.5139 | 1.115
x2 = 0.5761 | 1.225
x2 = 0.6483 | 1.365
x2 = 0.6867 | 1.435
x2 = 0.745 | 1.549
x2 = 0.8308 | 1.72
x2 = 0.8787 | 1.805
x2 = 0.9203 | 1.862
x2 = 0.9618 | 1.917

CC(C)c1ccccc1 + CN(C)c1ccccc1
viscosity [mPa·s], 101 kPa
Conditions | x1 = 0.2 | x1 = 0.4 | x1 = 0.6 | x1 = 0.8
293.15 K | 1.228 | 1.085 | 0.963 | 0.865
313.15 K | 0.915 | 0.817 | 0.733 | 0.666

CCCOC(=O)c1ccccc1 + CCCCCCCCCCCC
101 kPa
Conditions | viscosity [mPa·s]
298.15 K, x2 = 0.0304 | 2.294
298.15 K, x2 = 0.0721 | 2.175
298.15 K, x2 = 0.1434 | 2.021
298.15 K, x2 = 0.1817 | 1.949
298.15 K, x2 = 0.2145 | 1.892
298.15 K, x2 = 0.3444 | 1.688
298.15 K, x2 = 0.3881 | 1.634
298.15 K, x2 = 0.4343 | 1.583
298.15 K, x2 = 0.4851 | 1.537
298.15 K, x2 = 0.5395 | 1.494
298.15 K, x2 = 0.5883 | 1.458
298.15 K, x2 = 0.6355 | 1.431
298.15 K, x2 = 0.6936 | 1.402
298.15 K, x2 = 0.7544 | 1.38
298.15 K, x2 = 0.8162 | 1.368
298.15 K, x2 = 0.8809 | 1.358
298.15 K, x2 = 0.9435 | 1.354
308.15 K, x2 = 0.0462 | 1.805
308.15 K, x2 = 0.0938 | 1.716
308.15 K, x2 = 0.1234 | 1.663
308.15 K, x2 = 0.1581 | 1.608
308.15 K, x2 = 0.1951 | 1.553
308.15 K, x2 = 0.237 | 1.499
308.15 K, x2 = 0.2799 | 1.449
308.15 K, x2 = 0.3153 | 1.411
308.15 K, x2 = 0.359 | 1.37
308.15 K, x2 = 0.4106 | 1.326
308.15 K, x2 = 0.4473 | 1.299
308.15 K, x2 = 0.4959 | 1.267
308.15 K, x2 = 0.5498 | 1.236
308.15 K, x2 = 0.6007 | 1.21
308.15 K, x2 = 0.6592 | 1.191
308.15 K, x2 = 0.7183 | 1.172
308.15 K, x2 = 0.7624 | 1.163
308.15 K, x2 = 0.8324 | 1.153
308.15 K, x2 = 0.9146 | 1.146
318.15 K, x2 = 0.026 | 1.532
318.15 K, x2 = 0.0634 | 1.473
318.15 K, x2 = 0.0967 | 1.423
318.15 K, x2 = 0.1355 | 1.371
318.15 K, x2 = 0.1705 | 1.328
318.15 K, x2 = 0.2119 | 1.28
318.15 K, x2 = 0.2499 | 1.242
318.15 K, x2 = 0.2955 | 1.201
318.15 K, x2 = 0.3358 | 1.168
318.15 K, x2 = 0.4031 | 1.12
318.15 K, x2 = 0.4279 | 1.105
318.15 K, x2 = 0.48 | 1.077
318.15 K, x2 = 0.5272 | 1.055
318.15 K, x2 = 0.5827 | 1.033
318.15 K, x2 = 0.6342 | 1.015
318.15 K, x2 = 0.6953 | 0.997
318.15 K, x2 = 0.7509 | 0.985
318.15 K, x2 = 0.8169 | 0.975
318.15 K, x2 = 0.8761 | 0.968

O=C(O)c1cc(O)c(O)c(O)c1 + CO
viscosity [mPa·s], 101 kPa
Conditions | 293.15 K | 298.15 K | 303.15 K | 308.15 K | 313.15 K
x1 = 0.0019 | 0.634 | 0.595 | 0.551 | 0.517 | 0.491
x1 = 0.0038 | 0.664 | 0.62 | 0.576 | 0.542 | 0.505
x1 = 0.0058 | 0.699 | 0.66 | 0.604 | 0.562 | 0.528
x1 = 0.0078 | 0.734 | 0.684 | 0.635 | 0.591 | 0.55

CCCN + CCCCO
Conditions | viscosity [mPa·s]
298.15 K, 100 kPa, x2 = 0.0488 | 0.3946
298.15 K, 100 kPa, x2 = 0.0977 | 0.4367
298.15 K, 100 kPa, x2 = 0.2026 | 0.552
298.15 K, 100 kPa, x2 = 0.2966 | 0.6772
298.15 K, 100 kPa, x2 = 0.4 | 0.8384
298.15 K, 100 kPa, x2 = 0.4939 | 1.003
298.15 K, 100 kPa, x2 = 0.58 | 1.166
298.15 K, 100 kPa, x2 = 0.645 | 1.305
298.15 K, 100 kPa, x2 = 0.7024 | 1.45
298.15 K, 100 kPa, x2 = 0.7958 | 1.721
298.15 K, 100 kPa, x2 = 0.9025 | 2.113
303.15 K, 101 kPa, x1 = 0.01186 | 2.214
303.15 K, 101 kPa, x1 = 0.02208 | 2.185
303.15 K, 101 kPa, x1 = 0.03071 | 2.16
303.15 K, 101 kPa, x1 = 0.04153 | 2.133
303.15 K, 101 kPa, x1 = 0.04894 | 2.113
303.15 K, 101 kPa, x1 = 0.06228 | 2.083
303.15 K, 101 kPa, x1 = 0.07291 | 2.053
303.15 K, 101 kPa, x1 = 0.07608 | 2.038
303.15 K, 101 kPa, x1 = 0.08641 | 2.013
303.15 K, 101.33 kPa, x1 = 0.0967 | 2.02
303.15 K, 101.33 kPa, x1 = 0.186 | 1.771
303.15 K, 101.33 kPa, x1 = 0.2863 | 1.501
303.15 K, 101.33 kPa, x1 = 0.4131 | 1.177
303.15 K, 101.33 kPa, x1 = 0.514 | 0.9669
303.15 K, 101.33 kPa, x1 = 0.6196 | 0.7833
303.15 K, 101.33 kPa, x1 = 0.7178 | 0.6396
303.15 K, 101.33 kPa, x1 = 0.8121 | 0.5233
303.15 K, 101.33 kPa, x1 = 0.9017 | 0.433
313.15 K, 101.33 kPa, x1 = 0.0967 | 1.617
313.15 K, 101.33 kPa, x1 = 0.186 | 1.427
313.15 K, 101.33 kPa, x1 = 0.2863 | 1.218
313.15 K, 101.33 kPa, x1 = 0.4131 | 0.9675
313.15 K, 101.33 kPa, x1 = 0.514 | 0.7924
313.15 K, 101.33 kPa, x1 = 0.6196 | 0.6548
313.15 K, 101.33 kPa, x1 = 0.7178 | 0.5412
313.15 K, 101.33 kPa, x1 = 0.8121 | 0.4506
313.15 K, 101.33 kPa, x1 = 0.9017 | 0.3783
